Paper PMC11382315 (Heliyon, 2024)

What was measured:
HSP90AA1 [1] = biological target: T1, HSP90AA1 (Homo sapiens, UniProt P07900); experiment: Microscale thermophoresis; type: binding
primary human thyrocytes = experiment: Observed cytotoxic effects in stimulated primary human thyrocytes; type: cell-based; conditions: two doses: 10 and 40 μM (β-sitosterol 50 and 150 μM)
HSP90AA1 [2] = biological target: T1, HSP90AA1; experiment: Limited proteolysis-mass spectrometry; type: binding; conditions: lysate of dsDNA/dsRNA-stimulated primary human thyrocytes, 0.33 nmol/μg total protein

| Compound | Kd (HSP90AA1 [1]) [µM] | KD (affinity with HSP90AA1) (HSP90AA1 [1]; His-tag labeled HSP90AA1 50 nM, ligand 30 nM to 1 mM, PBS) | cytotoxic effects (primary human thyrocytes) | interaction with HSP90AA1 by Lip-MS (HSP90AA1 [2]) |
| --- | --- | --- | --- | --- |
| O=c1c(O)c(-c2ccc(O)c(O)c2)oc2cc(O)cc(O)c12 [quercetin] |  |  | without observed cytotoxic effects | identified as a common interacting protein target |
| CC[C@H](CC[C@@H](C)[C@H]1CC[C@H]2[C@@H]3CC=C4C[C@@H](O)CC[C@]4(C)[C@H]3CC[C@]12C)C(C)C [β-sitosterol] |  | no binding affinity | without observed cytotoxic effects |  |

Now from value to compound, other results behind:

| Kd (HSP90AA1 [1]) [µM] | KD (affinity with HSP90AA1) (HSP90AA1 [1]; His-tag labeled HSP90AA1 50 nM, ligand 30 nM to 1 mM, PBS) | Compound | cytotoxic effects (primary human thyrocytes) | interaction with HSP90AA1 by Lip-MS (HSP90AA1 [2]) |
| --- | --- | --- | --- | --- |
| 169 |  | O=c1c(O)c(-c2ccc(O)cc2)oc2cc(O)cc(O)c12 [kaempferol] | without observed cytotoxic effects |  |
| 294 |  | O=c1cc(-c2ccc(O)c(O)c2)oc2cc(O)cc(O)c12 [luteolin] |  | identified as a common interacting protein target |
| 123 |  | O=c1c(O)c(-c2ccc(O)cc2O)oc2cc(O)cc(O)c12 [morin] | without observed cytotoxic effects | identified as a common interacting protein target |
